Where two headings read alike, the source gives them in different places.
How the values were obtained:
[1] = test system: HeLa cells; test: Cytotoxicity in HeLa cells by ATP content (ATPlite kit); format: cell-based
Experimental: (§1) Black 96-well clear-bottom microtiter plates (Corning, Amsterdam, The Netherlands) were filled in duplicate using a customized robot system with serial 4-fold dilutions of compound in a final volume of 50 μl culture medium [RPMI medium without phenol red, 10% FBS, 0.04% gentamycin (50 mg/mL) and 0.5% DMSO]. Then, 100 μl of a HeLa cell suspension (5×10^4 cells/mL) in culture medium was added to each well followed by the addition of 50 μl rgRSV224 (MOI=0.02) virus in culture medium using a multidrop dispenser (Thermo Scientific, Erembodegem, Belgium). rgRSV224 virus is an engineered virus that includes an additional GFP gene (Hallak et al, 2000) and was in-licensed from the NIH (Bethesda, Md., USA). Medium, virus- and mock-infected controls were included in each test. Cells were incubated at 37° C. in a 5% CO2 atmosphere. Three days post-virus exposure, viral replication was quantified by measuring GFP expression in the cells by a MSM laser microscope (Tibotec, Beerse, Belgium). The EC50 was defined as the 50% inhibitory concentration for GFP expression. In parallel, compounds were incubated for three days in a set of white 96-well microtitier plates (Corning) and the cytotoxicity of compounds in HeLa cells was determined by measuring the ATP content of the cells using the ATPlite kit (PerkinElmer, Zaventem, Belgium) according to the manufacturer's instructions. The CC50 was defined as the 50% concentration for cytotoxicity.

[2] = test system: rgRSV224 virus; test: microbe, parasite or virus in culture; format: cell-based, respiratory syncytial virus (RSV); settings: read-out: WT activity EC50
Experimental: as §1, with “The EC50 was defined as the 50% inhibitory concentration for GFP expression.” left out, “instructions.” for “instructions. The CC50 was defined as the 50% concentration for cytotoxicity.”

[3] = Cytotoxicity in HeLa cells by ATP content (ATPlite kit); format: cell-based; settings: human; Table 1; HeLa cells, three days, ATP content; read-out: Tox CC50
Experimental: as §1

[4] = Table 1, rgRSV224 in HeLa cells, GFP expression three days post-virus exposure
[5] = Table 1, HeLa cells, three days, ATP content, read-out: Tox CC50

Compound	CC50 [1]	EC50 [2, 4]	CC50 [1, 5]	CC50 at 3 days [3]	EC50 ([2]; human respiratory syncytial virus, HeLa, 72 h)
O=c1n(Cc2nc3cc(Cl)ccc3n2CCCCO)c2cc(F)ccc2n1C1CC1 [P11]	> 9840 nM	0.253 nM	–	–	–
O=c1n(Cc2nc3cc(Cl)ccc3n2CCCCO)c2ccccc2n1C1CC1 [P12]	> 9840 nM	0.307 nM	–	–	–
CS(=O)(=O)CCCn1c(Cn2c(=O)n(C3CC3)c3ccncc32)nc2cc(Cl)ccc21 [P6]	> 9840 nM	< 0.15 nM	–	–	–
CS(=O)(=O)CCCn1c(Cn2c(=O)n(C3CC3)c3ccccc32)nc2cc(Cl)ccc21 [P24]	> 9840 nM	< 0.15 nM	–	–	–
CS(=O)(=O)NCCCCn1c(Cn2c(=O)n(C3CC3)c3ccncc32)nc2cc(Br)ccc21 [P5]	> 101000 nM	< 0.15 nM	–	–	–
CS(=O)(=O)NCCCn1c(Cn2c(=O)n(C3CC3)c3ccncc32)nc2cc(Br)ccc21 [P9]	> 101000 nM	0.21 nM	–	–	–
CS(=O)(=O)CCCn1c(Cn2c(=O)n(C3CC3)c3ccccc32)nc2cc(Br)ccc21 [P7]	> 9840 nM	< 0.15 nM	–	–	–
CC(=O)OCCCCn1c(Cn2c(=O)n(C3CC3)c3ccc(F)cc32)nc2cc(Br)ccc21 [P22]	–	< 0.81 nM	> 9840 nM	–	–
CS(=O)(=O)CCCn1c(Cn2c(=O)n(C3CC3)c3ccncc32)nc2cc(Br)ccc21 [P2, 3-({5-Bromo-1-[3-(methylsulfonyl)propyl]-1H-benzimidazol-2-yl}methyl)-1-cyclopropyl-1,3-dihydro-2H-imidazo[4,5-c]pyridin-2-one]	–	–	–	> 9840 nM	0.034 nM
O=c1n(Cc2nc3cc(Cl)ccc3n2CCCCF)c2ccccc2n1C1CC1 [P25]	–	< 0.15 nM	> 9840 nM	–	–
CC(=O)OCCCCn1c(Cn2c(=O)n(C3CC3)c3ccncc32)nc2cc(Br)ccc21 [P18]	–	1.07 nM	> 101000 nM	–	–
O=c1n(Cc2nc3cc(Br)ccc3n2CCCCO)c2cnccc2n1C1CC1 [P14]	> 98400 nM	0.523 nM	–	–	–
N#CCCCn1c(Cn2c(=O)n(C3CC3)c3ccncc32)nc2cc(Br)ccc21 [P27]	–	< 0.15 nM	> 9840 nM	–	–
CS(=O)(=O)CCCn1c(Cn2c(=O)n(C3CC3)c3ccc(F)cc32)nc2cc(Br)ccc21 [P3]	> 9840 nM	0.47 nM	–	–	–
O=c1n(Cc2nc3cc(Cl)ccc3n2CCCCO)c2cnccc2n1C1CC1 [P13]	> 9840 nM	0.454 nM	–	–	–
N#CCCCn1c(Cn2c(=O)n(C3CC3)c3ccncc32)nc2cc(Cl)ccc21 [P26]	–	< 0.15 nM	> 9840 nM	–	–
CN(C)CCCn1c(Cn2c(=O)n(C3CC3)c3ccncc32)nc2cc(Br)ccc21 [P21]	> 98400 nM	4.12 nM	–	–	–
CS(=O)(=O)CCCn1c(Cn2c(=O)n(C3CC3)c3ccc(F)cc32)nc2cc(Cl)ccc21 [P10]	> 9840 nM	0.23 nM	–	–	–
CC(C)CCn1c(Cn2c(=O)n(C3CC3)c3ccncc32)nc2cc(Br)ccc21 [P17]	> 49200 nM	0.808 nM	–	–	–
O=c1n(Cc2nc3cc(Br)ccc3n2CCCCCl)c2cnccc2n1C1CC1 [P8]	–	< 0.205 nM	> 9840 nM	–	–
CC(C)(C)C(=O)OCCCCn1c(Cn2c(=O)n(C3CC3)c3ccc(F)cc32)nc2cc(Cl)ccc21 [P20]	> 9840 nM	4.09 nM	–	–	–
CC(C)(C)C(=O)OCCCCn1c(Cn2c(=O)n(C3CC3)c3ccccc32)nc2cc(Cl)ccc21 [P19]	> 9840 nM	2.59 nM	–	–	–
